Each compound was assayed against T1, Axl (Homo sapiens, UniProt P30530) (assay: Phospho-Akt In-Cell Western Assay (inhibition of Axl activity after Axl-antibody cross-linking)). Settings: not given.
T1 construct: endogenous in cells; host or cells: HeLa cells
T1 sequence (P30530 26-894): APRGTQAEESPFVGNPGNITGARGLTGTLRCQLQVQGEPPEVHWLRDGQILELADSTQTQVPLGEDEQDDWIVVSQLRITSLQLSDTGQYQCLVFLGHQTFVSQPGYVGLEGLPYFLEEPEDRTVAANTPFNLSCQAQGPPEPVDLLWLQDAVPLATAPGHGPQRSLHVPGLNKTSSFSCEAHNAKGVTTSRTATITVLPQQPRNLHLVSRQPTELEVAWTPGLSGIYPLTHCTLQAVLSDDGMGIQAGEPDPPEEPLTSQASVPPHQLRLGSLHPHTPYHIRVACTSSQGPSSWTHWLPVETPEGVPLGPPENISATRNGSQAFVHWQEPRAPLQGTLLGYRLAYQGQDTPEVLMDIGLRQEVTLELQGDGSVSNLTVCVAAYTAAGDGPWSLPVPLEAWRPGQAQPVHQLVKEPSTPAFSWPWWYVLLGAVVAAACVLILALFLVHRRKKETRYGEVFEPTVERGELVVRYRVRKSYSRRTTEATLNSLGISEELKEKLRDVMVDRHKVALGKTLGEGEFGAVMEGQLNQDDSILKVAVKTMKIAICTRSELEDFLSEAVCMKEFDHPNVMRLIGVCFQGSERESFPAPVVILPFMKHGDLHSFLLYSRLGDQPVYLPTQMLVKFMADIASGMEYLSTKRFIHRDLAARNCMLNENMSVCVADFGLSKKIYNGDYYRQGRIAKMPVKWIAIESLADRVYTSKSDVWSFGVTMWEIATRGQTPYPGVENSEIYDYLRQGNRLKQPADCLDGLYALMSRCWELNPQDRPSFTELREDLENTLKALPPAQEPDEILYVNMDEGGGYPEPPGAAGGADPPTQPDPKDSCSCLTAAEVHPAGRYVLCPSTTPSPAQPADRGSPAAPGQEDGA
Type: cell-based
Summary of the method: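 Phospho-Akt was detected in formaldehyde-fixed cells by in-cell immunostaining with HRP chemiluminescence. Before fixation, HeLa cells kept 24 h in low-serum medium containing 500 ng/mL Axl/Fc received compound for 1 h at 37 °C, followed by 5-min Axl activation through antibody clustering.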

Compound	IC50
Nc1nc(Nc2ccc(N3C4CCC3CC(N3CCCC3)C4)c(F)c2)nn1-c1cc2c(nn1)-c1ccccc1CCC2 (stereo not shown) [Compound 76, 1-(6,7-dihydro-5H-benzo[6,7]cyclohepta[1,2-c]pyridazin-3-yl)-N^3-(3-fluoro-4-(3-(pyrrolidin-1-yl)-8-azabicyclo[3.2.1]oct-8-yl)phenyl)-1H-1,2,4-triazole-3,5-diamine]	< 1 µM

Same assay, conditions: Hela cells, phospho-Akt chemiluminescence normalized to relative cell number; compounds of formula (Ia), Table 1; read-out: IC50

Compound	IC50
COc1ccc2c(c1)CCCc1cc(-n3nc(Nc4ccc(OCCN5CCCC5)c(F)c4)nc3N)nnc1-2 [Compound 56, 1-(6,7-dihydro-5H-9-methoxybenzo[6,7]cyclo-hepta[1,2-c]pyridazin-3-yl)-N^3-(3-fluoro-4-(2-(pyrrolidin-1-yl)ethoxy)phenyl)-1H-1,2,4-triazole-3,5-diamine]	1 to 10 µM
COc1ccc2c(c1)CCCc1cc(-n3nc(Nc4ccc(N5CCN(C6CCCCC6)CC5)c(F)c4)nc3N)nnc1-2 [Compound 57, 1-(6,7-dihydro-5H-9-methoxybenzo[6,7]cyclo-hepta[1,2-c]pyridazin-3-yl)-N^3-(3-fluoro-4-(4-(cyclohexyl)piperazin-1-yl)phenyl)-1H-1,2,4-triazole-3,5-diamine]	> 20 µM
CN1CCN(C2CCN(c3ccc(Nc4nc(N)n(-c5cc6c(nn5)-c5ccccc5CCC6)n4)cc3F)CC2)CC1 [Compound 58, 1-(6,7-dihydro-5H-benzo[6,7]cyclohepta[1,2-c]pyridazin-3-yl)-N^3-(3-fluoro-4-(4-(4-methylpiperazin-1-yl)piperidin-1-yl)phenyl)-1H-1,2,4-triazole-3,5-diamine]	< 1 µM
CC1CCN(C2CCN(c3ccc(Nc4nc(N)n(-c5cc6c(nn5)-c5ccccc5CCC6)n4)cc3F)CC2)CC1 [Compound 59, 1-(6,7-dihydro-5H-benzo[6,7]cyclohepta[1,2-c]pyridazin-3-yl)-N^3-(3-fluoro-4-(4-(4-methylpiperidin-1-yl)piperidin-1-yl)phenyl)-1H-1,2,4-triazole-3,5-diamine]	< 1 µM
CN(CCOc1ccc(Nc2nc(N)n(-c3cc4c(nn3)-c3ccccc3CCC4)n2)cc1)C1CCCC1 [Compound 60, 1-(6,7-dihydro-5H-benzo[6,7]cyclohepta[1,2-c]pyridazin-3-yl)-N^3-(4-(2-(N-methylcyclopentylamino)-ethoxy)phenyl)-1H-1,2,4-triazole-3,5-diamine]	< 1 µM
CN(C)C1CCN(c2ccc(Nc3nc(N)n(-c4cc5c(nn4)-c4ccccc4CCC5)n3)cc2F)CC1 [Compound 61, 1-(6,7-dihydro-5H-benzo[6,7]cyclohepta[1,2-c]pyridazin-3-yl)-N^3-(3-fluoro-4-(4-dimethylaminopiperidin-1-yl)phenyl)-1H-1,2,4-triazole-3,5-diamine]	< 1 µM
Nc1nc(Nc2ccc(N3CCC(N4CCCC4)CC3)c(Cl)c2)nn1-c1cc2c(nn1)-c1ccccc1CCC2 [Compound 62, 1-(6,7-dihydro-5H-benzo[6,7]cyclohepta[1,2-c]pyridazin-3-yl)-N^3-(3-chloro-4-(4-pyrrolidin-1-yl-piperidin-1-yl)phenyl)-1H-1,2,4-triazole-3,5-diamine]	< 1 µM
Nc1nc(Nc2ccc(N3CCC(N4CCCC4)CC3)c(C(F)(F)F)c2)nn1-c1cc2c(nn1)-c1ccccc1CCC2 [Compound 63, 1-(6,7-dihydro-5H-benzo[6,7]cyclohepta[1,2-c]pyridazin-3-yl)-N^3-(3-trifluoromethyl-4-(4-pyrrolidin-1-yl-piperidin-1-yl)phenyl)-1H-1,2,4-triazole-3,5-diamine]	1 to 10 µM
COc1cc2c(cc1OC)-c1nnc(-n3nc(Nc4ccc(N5CCC(N6CCCC6)CC5)c(F)c4)nc3N)cc1CCC2 [Compound 64, 1-(6,7-dihydro-5H-9,10-dimethoxybenzo[6,7]cyclo-hepta[1,2-c]pyridazin-3-yl)-N^3-(3-fluoro-4-(4-pyrrolidin-1-yl-piperidin-1-yl)phenyl)-1H-1,2,4-triazole-3,5-diamine]	1 to 10 µM
COc1cc2c(c(OC)c1OC)-c1nnc(-n3nc(Nc4ccc(N5CCC(N6CCCC6)CC5)c(F)c4)nc3N)cc1CCC2 [Compound 65, 1-(6,7-dihydro-5H-9,10,11-trimethoxybenzo[6,7]cyclo-hepta[1,2-c]pyridazin-3-yl)-N^3-(3-fluoro-4-(4-pyrrolidin-1-yl-piperidin-1-yl)phenyl)-1H-1,2,4-triazole-3,5-diamine]	< 1 µM
CN1CC2CN(c3ccc(Nc4nc(N)n(-c5cc6c(nn5)-c5ccccc5CCC6)n4)cc3F)CC2C1 (stereo not shown) [Compound 66, 1-(6,7-dihydro-5H-benzo[6,7]cyclohepta[1,2-c]pyridazin-3-yl)-N^3-(3-fluoro-4-(5-methyloctahydro-pyrrolo[3,4-c]pyrrolyl)phenyl)-1H-1,2,4-triazole-3,5-diamine]	< 1 µM
Nc1nc(Nc2ccc(N3CCCC(N4CCCC4)C3)c(F)c2)nn1-c1cc2c(nn1)-c1ccccc1CCC2 (stereo not shown) [Compound 68, 1-(6,7-dihydro-5H-benzo[6,7]cyclohepta[1,2-c]pyridazin-3-yl)-N^3-(3-fluoro-4-(3-pyrrolidin-1-yl-piperidin-1-yl)phenyl)-1H-1,2,4-triazole-3,5-diamine]	< 1 µM
Nc1nc(Nc2ccc(N3CCCCC(N4CCCC4)C3)c(F)c2)nn1-c1cc2c(nn1)-c1ccccc1CCC2 (stereo not shown) [Compound 69, 1-(6,7-dihydro-5H-benzo[6,7]cyclohepta[1,2-c]pyridazin-3-yl)-N^3-(3-fluoro-4-(3-pyrrolidin-1-yl-azepan-1-yl)phenyl)-1H-1,2,4-triazole-3,5-diamine]	< 1 µM
CN1CCC(C2CCN(c3ccc(Nc4nc(N)n(-c5cc6c(nn5)-c5ccccc5CCC6)n4)cc3F)CC2)CC1 [Compound 70, 1-(6,7-dihydro-5H-benzo[6,7]cyclohepta[1,2-c]pyridazin-3-yl)-N^3-(3-fluoro-4-(4-N-methylpiperidin-4-yl-piperidin-1-yl)phenyl)-1H-1,2,4-triazole-3,5-diamine]	< 1 µM
Nc1nc(Nc2ccc(N3CCC(N4CCCC4)CC3)c(F)c2)nn1-c1cc2c(nn1)CCCc1ccccc1-2 [Compound 71, 1-(6,7-dihydro-5H-benzo[6,7]cyclohepta[4,5-c]pyridazin-2-yl)-N^3-(3-fluoro-4-(4-(pyrrolidinyl)piperidinyl)-phenyl)-1H-1,2,4-triazole-3,5-diamine]	< 1 µM
CCCN1CC2CN(c3ccc(Nc4nc(N)n(-c5cc6c(nn5)-c5ccccc5CCC6)n4)cc3F)CC2C1 (stereo not shown) [Compound 72, 1-(6,7-dihydro-5H-benzo[6,7]cyclohepta[1,2-c]pyridazin-3-yl)-N^3-(3-fluoro-4-(5-propyl-octahydropyrrolo[3,4-c]pyrrolyl)phenyl)-1H-1,2,4-triazole-3,5-diamine]	< 1 µM
Nc1nc(Nc2ccc(N3CCN4CCCCCC4C3)c(F)c2)nn1-c1cc2c(nn1)-c1ccccc1CCC2 (stereo not shown) [Compound 73, 1-(6,7-dihydro-5H-benzo[6,7]cyclohepta[1,2-c]pyridazin-3-yl)-N^3-(3-fluoro-4-(decahydropyrazino[1,2-a]azepin-2-yl)phenyl)-1H-1,2,4-triazole-3,5-diamine]	< 1 µM
Nc1nc(Nc2ccc(N3CC4CN(C5CCCC5)CC4C3)c(F)c2)nn1-c1cc2c(nn1)-c1ccccc1CCC2 (stereo not shown) [Compound 75, 1-(6,7-dihydro-5H-benzo[6,7]cyclohepta[1,2-c]pyridazin-3-yl)-N^3-(3-fluoro-4-(5-cyclopentyloctahydro-pyrrolo[3,4-c]pyrrolyl)phenyl)-1H-1,2,4-triazole-3,5-diamine]	< 1 µM
Nc1nc(Nc2ccc(N3CCCC(N4CCCC4)CC3)c(F)c2)nn1-c1cc2c(nn1)-c1ccccc1CCC2 (stereo not shown) [Compound 77, 1-(6,7-dihydro-5H-benzo[6,7]cyclohepta[1,2-c]pyridazin-3-yl)-N^3-(3-fluoro-4-(4-pyrrolidin-1-yl-azepan-1-yl)phenyl)-1H-1,2,4-triazole-3,5-diamine]	< 1 µM
CC(C)N1CCN(C2CCN(c3ccc(Nc4nc(N)n(-c5cc6c(nn5)-c5ccccc5CCC6)n4)cc3F)CC2)CC1 [Compound 80, 1-(6,7-dihydro-5H-benzo[6,7]cyclohepta[1,2-c]pyridazin-3-yl)-N^3-(3-fluoro-4-(4-(4-isopropylpiperazin-1-yl)piperidin-1-yl)phenyl)-1H-1,2,4-triazole-3,5-diamine]	< 1 µM
CN1CCC2CN(c3ccc(Nc4nc(N)n(-c5cc6c(nn5)-c5ccccc5CCC6)n4)cc3F)CC21 (stereo not shown) [Compound 81, 1-(6,7-dihydro-5H-benzo[6,7]cyclohepta[1,2-c]pyridazin-3-yl)-N^3-(3-fluoro-4-(1-methyl-octahydropyrrolo[3,4-b]pyrrol-5-yl)phenyl)-1H-1,2,4-triazole-3,5-diamine]	< 1 µM
